Assay results published in ChEMBL document CHEMBL3046832, “Synthesis of some sulfonamides, disubstituted sulfonylureas or thioureas and some structurally related variants. A class of promising antitumor agents” (2007).

Legend:
Format in all cases: functional
[1] = test system: MDA-MB-435; assay: Cytotoxicity against Homo sapiens (human) MDA-MB-435 cells after 48 hr by SRB assay; details: MDA-MB-435, 48 h
[2] = test system: M14; assay: Cytotoxicity against Homo sapiens (human) M14 cells after 48 hr by SRB assay; details: M14, 48 h
[3] = test system: LOX IMVI; assay: Cytotoxicity against Homo sapiens (human) LOXIMVI cells after 48 hr by SRB assay
[4] = test system: U-251; assay: Cytotoxicity against Homo sapiens (human) U251 cells after 48 hr by SRB assay; details: U-251, 48 h
[5] = test system: SNB-75; assay: Cytotoxicity against Homo sapiens (human) SNB75 cells after 48 hr by SRB assay; details: SNB-75, 48 h
[6] = test system: Hs-578T; assay: Cytotoxicity against Homo sapiens (human) Hs578T cells after 48 hr by SRB assay
[7] = test system: MCF7; assay: Cytotoxicity against Homo sapiens (human) MCF7 cells after 48 hr by SRB assay; details: MCF7, 48 h
[8] = test system: MDA-MB-231; assay: Cytotoxicity against Homo sapiens (human) MDA-MB-231 cells after 48 hr by SRB assay; details: MDA-MB-231, 48 h
[9] = test system: DU-145; assay: Cytotoxicity against Homo sapiens (human) DU145 cells after 48 hr by SRB assay; details: DU-145, 48 h
[10] = test system: UO-31; assay: Cytotoxicity against Homo sapiens (human) UO31 cells after 48 hr by SRB assay; details: UO-31, 48 h
[11] = test system: CAKI-1; assay: Cytotoxicity against Homo sapiens (human) Caki1 cells after 48 hr by SRB assay; details: CAKI-1, 48 h
[12] = test system: ACHN; assay: Cytotoxicity against Homo sapiens (human) ACHN cells after 48 hr by SRB assay
[13] = test system: 786-0; assay: Cytotoxicity against Homo sapiens (human) 786-0 cells after 48 hr by SRB assay; details: 786-0, 48 h
[14] = test system: OVCAR-8; assay: Cytotoxicity against Homo sapiens (human) OVCAR8 cells after 48 hr by SRB assay; details: OVCAR-8, 48 h
[15] = test system: OVCAR-5; assay: Cytotoxicity against Homo sapiens (human) OVCAR5 cells after 48 hr by SRB assay; details: OVCAR-5, 48 h
[16] = test system: OVCAR-4; assay: Cytotoxicity against Homo sapiens (human) OVCAR4 cells after 48 hr by SRB assay; details: OVCAR-4, 48 h
[17] = test system: IGROV-1; assay: Cytotoxicity against Homo sapiens (human) IGROV1 cells after 48 hr by SRB assay; details: IGROV-1, 48 h
[18] = test system: OVCAR-3; assay: Cytotoxicity against Homo sapiens (human) OVCAR3 cells after 48 hr by SRB assay; details: OVCAR-3, 48 h
[19] = test system: UACC-62; assay: Cytotoxicity against Homo sapiens (human) UACC62 cells after 48 hr by SRB assay; details: UACC-62, 48 h
[20] = test system: UACC-257; assay: Cytotoxicity against Homo sapiens (human) UACC257 cells after 48 hr by SRB assay; details: UACC-257, 48 h
[21] = test system: SK-MEL-5; assay: Cytotoxicity against Homo sapiens (human) SK-MEL-5 cells after 48 hr by SRB assay; details: SK-MEL-5, 48 h
[22] = Cytotoxicity against Homo sapiens (human) breast cancer cells after 48 hr by SRB assay; details: Cancer cell lines
[23] = Cytotoxicity against Homo sapiens (human) prostate cancer cells after 48 hr by SRB assay; details: Cancer cell lines
[24] = Cytotoxicity against Homo sapiens (human) renal cancer cells after 48 hr by SRB assay; details: Cancer cell lines
[25] = Cytotoxicity against Homo sapiens (human) melanoma cells after 48 hr by SRB assay; details: Melanoma cell
[26] = Cytotoxicity against Homo sapiens (human) CNS cancer cells after 48 hr by SRB assay; details: Cancer cell lines
[27] = Cytotoxicity against Homo sapiens (human) colon cancer cells after 48 hr by SRB assay; details: Cancer cell lines
[28] = Cytotoxicity against Homo sapiens (human) non-small cell lung cancer cells after 48 hr by SRB assay; details: Cancer cell lines
[29] = test system: NCI-H460; assay: Cytotoxicity against Homo sapiens (human) NCI-H460 cells assessed as cellular growth after 48 hr by Alamar blue assay; design: concentration or dose not given beside the values
[30] = Cytotoxicity against Homo sapiens (human) leukemia cells after 48 hr by SRB assay; details: Leukemia cell
[31] = test system: T47D; assay: Cytotoxicity against Homo sapiens (human) T47D cells after 48 hr by SRB assay
[32] = test system: SF-539; assay: Cytotoxicity against Homo sapiens (human) SF539 cells after 48 hr by SRB assay; details: SF-539, 48 h
[33] = test system: SF-295; assay: Cytotoxicity against Homo sapiens (human) SF295 cells after 48 hr by SRB assay; details: SF-295, 48 h
[34] = test system: SF-268; assay: Cytotoxicity against Homo sapiens (human) SF268 cells after 48 hr by SRB assay; details: SF-268, 48 h
[35] = test system: HCT-15; assay: Cytotoxicity against Homo sapiens (human) HCT15 cells after 48 hr by SRB assay; details: HCT-15, 48 h
[36] = test system: HT-29; assay: Cytotoxicity against Homo sapiens (human) HT-29 cells after 48 hr by SRB assay; details: HT-29, 48 h
[37] = test system: HCC 2998; assay: Cytotoxicity against Homo sapiens (human) HCC2998 cells after 48 hr by SRB assay; details: HCC 2998, 48 h
[38] = test system: NCI-H522; assay: Cytotoxicity against Homo sapiens (human) NCI-H522 cells after 48 hr by SRB assay; details: NCI-H522, 48 h
[39] = test system: COLO 205; assay: Cytotoxicity against Homo sapiens (human) COLO205 cells after 48 hr by SRB assay; details: COLO 205, 48 h
[40] = test system: NCI-H23; assay: Cytotoxicity against Homo sapiens (human) NCI-H23 cells after 48 hr by SRB assay; details: NCI-H23, 48 h
[41] = Cytotoxicity against Homo sapiens (human) NCI-H322 cells after 48 hr by SRB assay; details: NCI-H322, 48 h
[42] = test system: EKVX; assay: Cytotoxicity against Homo sapiens (human) EKVX cells after 48 hr by SRB assay
[43] = test system: HOP-62; assay: Cytotoxicity against Homo sapiens (human) HOP62 cells after 48 hr by SRB assay; details: HOP-62, 48 h
[44] = test system: A549; assay: Cytotoxicity against Homo sapiens (human) A549 cells after 48 hr by SRB assay; details: A549, 48 h
[45] = test system: MOLT-4; assay: Cytotoxicity against Homo sapiens (human) MOLT4 cells after 48 hr by SRB assay; details: MOLT-4, 48 h
[46] = test system: CCRF-CEM; assay: Cytotoxicity against Homo sapiens (human) CCRF-CEM cells after 48 hr by SRB assay
[47] = test system: MCF7; assay: Cytotoxicity against Homo sapiens (human) MCF7 cells assessed as cellular growth after 48 hr by Alamar blue assay; design: concentration or dose not given beside the values

For `O=C1CS/C(=N\S(=O)(=O)c2ccc(N3N=C4c5ccccc5CC4C3c3cccs3)cc2)N1C(=O)c1ccccc1` (stereo not given), the GI50 [1] was 37.4 µM, the GI50 [2] was 44.7 µM and the GI50 [3] was 22.7 µM. The GI50 [4] was 36.3 µM, the GI50 [5] was greater than 100 µM and the GI50 [6] was 25.3 µM. It also gave a GI50 [7] greater than 100 µM, a GI50 [8] of 44.6 µM and a GI50 [9] of 38.2 µM. The GI50 [10] was greater than 100 µM, the GI50 [11] was 39 µM and the GI50 [12] was 23.6 µM. For the same molecule, the GI50 [13] was 48.8 µM, the GI50 [14] was 45.7 µM and the GI50 [15] was 32.2 µM. For the same molecule, the GI50 [16] was greater than 100 µM, the GI50 [17] was 28.3 µM and the GI50 [18] was 59.2 µM. It also gave a GI50 [19] of 23.2 µM, a GI50 [20] greater than 100 µM and a GI50 [21] of 22.7 µM. It also gave a GI50 [22] of 63 µM, a TGI [22] greater than 100 µM and a GI50 [23] of 38.1 µM. For the same molecule, the TGI [23] was greater than 100 µM, the GI50 [24] was 59.4 µM and the TGI [24] was 99.1 µM. The GI50 [25] was 73.3 µM, the TGI [25] was greater than 100 µM and the GI50 [26] was 64.9 µM. For the same molecule, the TGI [26] was greater than 100 µM, the GI50 [27] was 40.4 µM and the TGI [27] was 79.8 µM. The GI50 [28] was 49.3 µM, the TGI [28] was 85.9 µM and the Activity [29] was “<=32%”. It also gave a GI50 [30] of 31.2 µM, a TGI [30] of 84.5 µM and a GI50 [31] greater than 100 µM. For the same molecule, the GI50 [32] was 44.6 µM, the GI50 [33] was 31.7 µM and the GI50 [34] was greater than 100 µM. The GI50 [35] was 56.3 µM, the GI50 [36] was 76 µM and the GI50 [37] was 17.6 µM. For the same molecule, the GI50 [38] was 60.1 µM, the GI50 [39] was 51 µM and the GI50 [40] was 25.1 µM. For the same molecule, the GI50 [41] was 16.6 µM, the GI50 [42] was 42.4 µM and the GI50 [43] was 32.9 µM. It also gave a GI50 [44] of 70.5 µM, a GI50 [45] of 22.2 µM and a GI50 [46] of 37.5 µM. The Activity [47] was “<=32%”.
